Laboratory results as given in US9670201B2, “Methyl- and trifluoromethyl-substituted pyrrolopyridine modulators of RORC2 and methods of use thereof” (Pfizer Inc., priority 2014, dated 2017).

Biological target: RORC2 ligand binding domain (6-His-RORC2 LBD) (Homo sapiens (Human), UniProt P51449)
Test: Co-activator recruitment by TR-FRET
Format: biochemical
Details: 6-His-RORC2 LBD / SRC1-2 coactivator peptide, Table 1

Chain of RORC2 ligand binding domain (6-His-RORC2 LBD) (P51449 269-508): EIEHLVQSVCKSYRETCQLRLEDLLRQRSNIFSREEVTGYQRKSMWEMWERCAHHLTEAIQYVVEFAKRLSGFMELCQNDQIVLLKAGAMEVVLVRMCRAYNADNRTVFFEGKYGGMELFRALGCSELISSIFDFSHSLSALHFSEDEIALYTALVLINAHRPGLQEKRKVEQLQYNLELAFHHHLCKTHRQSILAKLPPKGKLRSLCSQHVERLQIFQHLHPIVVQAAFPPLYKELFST

Compound | IC50
Cc1c(NC(=O)c2cccc(C#N)c2)cnc2c1c([C@H]1C[C@H](C)N(C(=O)C3CCCC3)C[C@H]1C)cn2C (relative stereo) [Example 97, rel-3-cyano-N-(3-((2S,4S,5S)-1-(cyclopentanecarbonyl)-2,5-dimethylpiperidin-4-yl)-1,4-dimethyl-1H-pyrrolo[2,3-b]pyridin-5-yl)benzamide] | 18.6 nM
Cn1cc(C2CCN(C(=O)[C@@H]3CCCS3)CC2)c2c(C(F)(F)F)c(NC(=O)c3cccc(C#N)c3)cnc21 (single isomer, unassigned) [Example 29] | 0.9 nM
Cc1c(NC(=O)c2cccc(C#N)c2)cnc2c1c(C1CCN(C(=O)[C@H]3CCC[C@@H]3C)CC1)cn2C (single isomer, unassigned) [Example 46] | 16.4 nM
Cc1c(NC(=O)c2cccc(C#N)c2)cnc2c1c(C1CCN(C(=O)[C@@H]3CCC[C@H]3C)CC1)cn2C (single isomer, unassigned) [Example 47] | 10.1 nM
Cc1c(NC(=O)c2cccc(C#N)c2)cnc2c1c(C1CCN(C(=O)[C@@H]3CCC[C@H]3C(C)C)CC1)cn2C (single isomer, unassigned) [Example 49] | 6.2 nM
CC(C)C(=O)N1CCC(c2cn(C)c3ncc(NC(=O)c4ccc(F)c(C#N)c4)c(C(F)(F)F)c23)CC1 [Example 9, 3-cyano-4-fluoro-N-(3-(1-isobutyrylpiperidin-4-yl)-1-methyl-4-(trifluoromethyl)-1H-pyrrolo[2,3-b]pyridin-5-yl)benzamide] | 5.4 nM
CC(C)C(=O)N1CCC(c2cn(C)c3ncc(NC(=O)c4ccc(Cl)c(C#N)c4)c(C(F)(F)F)c23)CC1 [Example 11, 4-chloro-3-cyano-N-(3-(1-isobutyrylpiperidin-4-yl)-1-methyl-4-(trifluoromethyl)-1H-pyrrolo[2,3-b]pyridin-5-yl)benzamide] | 1.5 nM
CC(C)C(=O)N1CCC(c2cn(C)c3ncc(NC(=O)c4ccc(F)c(Cl)c4)c(C(F)(F)F)c23)CC1 [Example 12, 3-chloro-4-fluoro-N-(3-(1-isobutyrylpiperidin-4-yl)-1-methyl-4-(trifluoromethyl)-1H-pyrrolo[2,3-b]pyridin-5-yl)benzamide] | 11.8 nM
COc1cc(Cl)cc(C(=O)Nc2cnc3c(c(C4CCN(C(=O)C(C)C)CC4)cn3C)c2C(F)(F)F)c1 [Example 13, 3-chloro-N-(3-(1-isobutyrylpiperidin-4-yl)-1-methyl-4-(trifluoromethyl)-1H-pyrrolo[2,3-b]pyridin-5-yl)-5-methoxybenzamide] | 5 nM

The remaining compounds from weak to strong by IC50, led by results:

IC50 | Compound
7.1 nM | Cn1cc(C2CCN(C(=O)[C@H]3CCCS3)CC2)c2c(C(F)(F)F)c(NC(=O)c3cccc(C#N)c3)cnc21 (single isomer, unassigned) [Example 28]
5.8 nM | CC(C(=O)N1CCC(c2cn(C)c3ncc(NC(=O)c4cccc(C#N)c4)c(C(F)(F)F)c23)CC1)C1CC1 (racemic) [Example 25, Rac-3-cyano-N-(3-(1-(2-cyclopropylpropanoyl)piperidin-4-yl)-1-methyl-4-(trifluoromethyl)-1H-pyrrolo[2,3-b]pyridin-5-yl)benzamide]
3.5 nM | COc1ccc(C(=O)Nc2cnc3c(c(C4CCN(C(=O)C(C)C)CC4)cn3C)c2C(F)(F)F)cc1Cl [Example 10, 3-chloro-N-(3-(1-isobutyrylpiperidin-4-yl)-1-methyl-4-(trifluoromethyl)-1H-pyrrolo[2,3-b]pyridin-5-yl)-4-methoxybenzamide]
3.2 nM | Cn1cc(C2CCN(C(=O)C3CCCC3)CC2)c2c(C(F)(F)F)c(NC(=O)c3ccc(F)c(C#N)c3)cnc21 [Example 3, 3-cyano-N-(3-(1-(cyclopentanecarbonyl)piperidin-4-yl)-1-methyl-4-(trifluoromethyl)-1H-pyrrolo[2,3-b]pyridin-5-yl)-4-fluorobenzamide]
